pIC50: −log10 of the molar value.
How the values were obtained:
[1] = Inhibition of human TREX1 exonuclease activity using labeled DNA oligonucleotide as substrate incubated for 30 mins and measured after 45 mins by fluorescence assay
[2] = Inhibition of mouse TREX1 exonuclease activity using labeled DNA oligonucleotide as substrate incubated for 30 mins and measured after 45 mins by fluorescence assay
Homo sapiens [3] = species on record: Homo sapiens; assay: Binding affinity to recombinant human TREX1 incubated in PBS and measured by thermal shift binding assay; note: test concentration or dose not given here
Homo sapiens [4] = species on record: Homo sapiens; assay: Binding affinity to recombinant human TREX1 incubated in assay buffer and measured by thermal shift binding assay; note: test concentration or dose not given here
Mus musculus [5] = species on record: Mus musculus; assay: Binding affinity to recombinant mouse TREX1 incubated in PBS and measured by thermal shift binding assay; note: test concentration or dose not given here
Mus musculus [6] = species on record: Mus musculus; assay: Binding affinity to recombinant mouse TREX1 incubated in assay buffer and measured by thermal shift binding assay; note: test concentration or dose not given here

pIC50 [1] | pIC50 [2] | ΔTm (Homo sapiens [3]) | ΔTm (Homo sapiens [4]) | ΔTm (Mus musculus [5]) | ΔTm (Mus musculus [6]) | SMILES
> 6.00 | > 6.00 | > 8 °C | > 8 °C | 4 °C | 4 °C | N[C@@H]1C[C@H]2C(=O)N([C@H](CO)C(=O)NCc3ccc(Cl)c(Cl)c3)CCC(CCc3ccccc3)N2C1 (stereo partly drawn)
> 6.00 | > 6.00 | > 8 °C | > 8 °C | 4 °C | 4 °C | N[C@@H]1C[C@H]2C(=O)N([C@H](Cc3ccc(O)cc3)C(=O)NCc3ccc(Cl)c(Cl)c3)CCC(CCc3ccccc3)N2C1 (stereo partly drawn)
> 6.00 | > 6.00 | > 8 °C | > 8 °C | 4 °C | 4 °C | CC(C)C[C@H](C(=O)NCc1ccc(Cl)c(Cl)c1)N1CCC(CCc2ccccc2)N2C[C@H](N)C[C@H]2C1=O (stereo partly drawn)

Source: ChEMBL document CHEMBL5050833, “Novel cyclic trex1 inhibitors” (2020)
